Results published in patent US10105414B2, “Peptides derived from RS1 which down-regulate glucose absorption after a glucose rich meal and increase insulin sensitivity” (Julius-Maximilians-Universität Würzburg, priority 2014, dated 2018).
Substitutions are numbered along the chain they refer to. Names and notes keep the numbering of the source. Like-named read-outs stand apart in the source and are kept apart here.

Key:
hCNT1 = test: hCNT1-mediated uridine uptake in Xenopus laevis oocytes after injection of peptides; format: cell-based, human; conditions: no AMG injected; for uptake of 5 μM [3H]uridine expressed by hCNT1: low intracellular glucose
Experimental: (§1) Selected oocytes were injected with 50 nl of water containing cRNAs (2.5 ng of hSGLT1 or 0.5 ng of hCNT1). For expression oocytes were incubated for 2-3 days at 16° C. in modified Barth's solution with gentamycin. Noninjected control oocytes were incubated in parallel.
(§2) Before uptake measurements were started, 50 nl of K-Ori buffer containing peptides, polypeptides, 1 pM of calmodulin stimulated kinase 2 (CK2) inhibitor KN93 (Calbiochem San Diego. Calif.), 3 mM of the omithinedecarboxlase inhibitor difluoromethylornithine DFMO and/or or 100 pmol α-methyl-α-D-glucopyranoside (AMG) were injected and the oocytes were incubated for 1 h at room temperature. Uptake was measured in Ori buffer at room temperature. Measurements in transporter expressing oocytes were corrected for measurements in noninjected oocytes. Uptake of 50 μM [^14C]AMG was measured after 15 min incubation and washing in ice-cold Ori buffer containing 1 mM phlorizin. Uptake of 5 μM [^3H]uridine was measured after 15 min incubation and washing in ice-cold Ori buffer. Oocytes were solubilized in 5% (w/v) SDS and analyzed for radioactivity by scintillation counting.
(§3) For comparison of mean values from 2 groups the Student's t-test for unpaired samples was employed.

hCNT3 = test: hCNT3-mediated uridine uptake in Xenopus laevis oocytes after injection of peptides; format: cell-based, human; conditions: low intracellular glucose, no AMG injected
Experimental: FIG. 9. […] Posttransciptional downregulation of hCNT1 and hCNT3 was measured without injection of AMG. […] One hour later uptake of 5 μM [^3H]uridine was measured.
as §2

hSGLT1 [1] = conditions: cited from earlier work
hSGLT1 [2] = test: hSGLT1-mediated AMG uptake in Xenopus laevis oocytes 1 h after injection of peptides; format: cell-based, human; conditions: for down-regulation of hSGLT1: without injection of AMG (<10 μM); for affinity for down-regulation of hSGLT1 compared with hRS1-Reg wildtype: low intracellular glucose; for effect of intracellular AMG on the affinity for down-regulation of hSGLT1: without versus with injection of AMG
Experimental: as §1, §2, §3

mSGLT1 [3] = conditions: RS1−/− mice starved over night; gavage 20 μmol per mouse; after 2 h
Experimental: (§4) For measurement of SGLT1 mediated glucose uptake, the everted segments of mouse small intestine or defined areas of human mucosa were incubated for 2 min at 37° C. with Krebs-Ringer buffer containing 10 μM [^14C]AMG with or without 0.2 mM phlorizin. Uptake was stopped by transferring the segments into ice cold Krebs-Ringer buffer containing 0.2 mM phlorizin for 5 min. After washing with ice cold Krebs-Ringer buffer the intestinal segments or pieces of human mucosa were dissolved in 0.5 ml Soluence-350) (Perkin Elmer Inc. Waltham Mass., USA). Radioactivity was analysed by liquid scintillation counting. Phlorizin inhibited AMG uptake per cm length or per standard area of the mucosa was calculated.
After 2 h the animals were killed, their small intestines were everted and phlorizin inhibited uptake of 10 μM [^14C]AMG Into segments of the everted jejunum was measured (FIG. 12A).

mSGLT1 [4] = conditions: 5 mM tripeptide, 30 min, 37° C., 5 mM D-glucose
Experimental: (§5) Standardised t areas of human small intestinal mucosa (FIGS. 13,19) or 1 cm segments of everted mouse small intestine (FIGS. 14,15,20) were washed three times at 37° C. with Krebs-Ringer buffer containing 5 mM D-glucose and incubated for 30 min at 37° C. in Krebs-Ringer buffer containing 5 mM D-glucose plus different concentrations of tripeptides. Thereafter the tissue was washed three times at 0° C. in Krebs-Ringer buffer without glucose and uptake measurements were performed.
as §4
Thereafter the segments were washed with PBS buffer and phlorizin inhibited uptake of 10 μM [^14C]AMG was measured.

hSGLT1 [5] = conditions: 5 mM D-glucose, 30 min
Experimental: Jejunal segments which were routinely dissected during bariatric operations of highly obese patients were stored for 1-3 h on ice in Dulbecco's modified Eagle's medium containing 5 mM D-glucose. The mucosa was isolated and circular areas of the mucosa were dissected using a punching instrument.
as §5, §4
Next, it was investigated which of the QXP-type tripeptides are capable to downregulate hSGLT1 expression in human small intestine in the presence of high glucose. Jejunal samples that were obtained during bariatric surgery of obese patients (males and females with a mean age of 50 years with a mean body mass index of 50) were used. […] A part of the jejumum which is routinely removed during bariatric surgery, was carried to the laboratory using ice-cold culture medium containing 6 mM D-glucose. Part of the mucosa was dissected and identical areas of the mucosa were isolated using a punching instrument. The mucosal pieces were washed with glucose free buffer and incubated for 30 min at 37° C. in tissue culture medium (pH 6.4) containing 5 mM D-glucose and different QXP-type tripeptides. Thereafter the sample were washed two times with PBS buffer (pH 7.4, 37° C.) and incubated for 2 min at 37° C. in PBS (pH 7.4) containing 100 mM sodium and 10 μM [^14C]AMG. The incubation was performed in the absence and presence of 200 μM of the SGLT1 inhibitor phlorizin. Thereafter the samples were washed with ice-cold PBS, the tissue was dissolved, and radioactivity was determined by liquid scintillation counting. The phorizin inhibited AMG uptake was calculated.

mSGLT1 [6] = test: Phlorizin inhibited AMG uptake into everted small intestine after gavage of mice with mRS1-Reg coupled to hydrogel nanoparticles; format: in vivo, mouse; conditions: gavage 1 nmol coupled to nanoparticles, 2 h
Experimental: Inversed miniemulsions were prepared from 2.5 ml hexane containing 50.3 mg Span 80 (Sigma, Taufkirchen, Germany) and 16.7 mg TWEEN 80™ (Sigma) and 0.4 ml 20 mM Hepes pH 7.4 containing 100 mg of thiol-functionalized linear poly(glycidol) polymer (Groll (2009) Journal of Polymer Science 47,5543-5549), 0.5 mg […] (TAT-peptide, Peptides International, Louisville, Ky., USA), and 0.28 mg cysteine-terminated RS1-Reg peptide. In control nanohydrogels the RS1-Reg peptide was omitted. The nanogels were prepared as described (Groll (2009) Journal of Polymer Science 47,5543-5549). Shortly, the organic and aqueous phase were combined, stirred, and a miniemulsion was prepared by ultrasonication at 0° C. For formation of disulphide bridges 60 μL of 0.1 M H2O2 in water were added. The mixture was sonicated for 60 s and incubated for 25 min at room temperature. Oxidation was quenched by acidification and the nanogels were separated by centrifugation. The aqueous layer containing the nanogels was separated and washed four times with a tetrahydrofuran/water (20%/80%)-mixture to remove the surfactants and unreacted polymer. Remaining organic solvents and acid were removed by dialysis against water. The nanohydrogel suspension was stored up to two weeks stored at 4° C.
Male Rs1−/− mice or wildtype mice (Osswald (2005) Mol Cell Biol. 25, 78-87) kept on standard diet were starved over night and gavaged with 200 μl water (adjusted with HCl to pH 5.5) containing 10 mg nanohydrohydrogel that was loaded with 45 μg mRS1-Reg mutant. As a control unloaded nanohydrogel was used. […] The jejunum was cut into 1 cm long segments.
Radioactivity was analysed by liquid scintillation counting.
RS1−/− mice starved overnight were gavaged with 200 μl empty NPs (control) or 200 μl NPs loaded with 1 nmol mRS1-Reg(S19A) or 1 nmol mRS1-Reg(S19E). […] 2 h after gavage with mRS1-Reg mutants coupled to NPs, phlorizin (200 μM) Inhibited uptake of 10 μM AMG labelled containing tracer [^14C]AMG after 2 min incubation at 37° C. (FIG. 21A, C) or uptake of 1 mM AMG labelled with tracer [^14C]AMG after 2 min incubation at 37° C. was measured (FIG. 21B, D). […] Since AMG is rapidly transported by mSGLT1 into the enterocytes the intracellular concentration increases within seconds to values higher than 0.25 mM when the cells were incubated with 1 mM AMG. […] In contrast phlorizin-inhibited uptake of 10 μM AMG or 1 mM AMG was inhibited by 26 and 30% respectively. […] The data further indicate that gavage of a mouse with 1 nmol mRS1-Reg(S19E) is sufficient to downregulate SGLT1 in the presence of low and high intracelluar glucose.

[7] = 5 pM, intracellular AMG ~0.25 mM

## SDSDRIEP [octapeptide corresponding to a particular motif of human RS1, reference compound]
hCNT1
  uptake of 5 μM [3H]uridine expressed by hCNT1: decreased
hCNT3
  uptake of 5 μM [3H]uridine expressed by hCNT3: decreased

## glutamine-serine-proline [QSP, reference compound]
hSGLT1 [1]; 200 nM QSP, intracellular AMG <10 μM
  inhibition of hSGLT1 expression in oocytes: 40-50%
hSGLT1 [1]; 200 nM QSP, intracellular AMG higher than 250 μM
  inhibition of hSGLT1 expression in oocytes after injection of AMG: abolished
hSGLT1 [1]; intracellular AMG higher than 0.1 mM
  down-regulation of hSGLT1 at raised intracellular AMG: blunted
hCNT1
  uptake of 5 μM [3H]uridine expressed by hCNT1: not able to inhibit
hSGLT1 [2]; 50 nM tripeptide, no AMG injected
  inhibition of SGLT1 mediated transport: inhibition
hSGLT1 [2]; 250 μM intracellular AMG
  effect on hSGLT1 expression: abolished
hSGLT1 [2]; without injection of AMG (intracellular AMG <10 μM), read-out: IC50 for down-regulation of hSGLT1-mediated AMG uptake
  IC50: 0.2 nM
mSGLT1 [3]
  decrease of phlorizin inhibited uptake of 10 μM [14C]AMG into everted jejunum: no significant effect
hCNT3
  uptake of 5 μM [3H]uridine expressed by hCNT3: not able to inhibit
mSGLT1 [4]; wildtype mice
  decrease of SGLT1 mediated uptake of 10 μM [14C]AMG: no significant effect

## glutamine-serinethiophosphate-proline [QSthiophosphateP]
hSGLT1 [2]; [7]
  degree of down-regulation of hSGLT1: ~75%
  down-regulation of hSGLT1 expression: down-regulated
hSGLT1 [2]; 5 pM
  down-regulation of hSGLT1: not
hSGLT1 [2]; 500 pM, intracellular AMG ~0.25 mM
  down-regulation of hSGLT1 expression: down-regulated
hSGLT1 [2]; 500 pM
  down-regulation of hSGLT1: down-regulated
hSGLT1 [5]; 5 mM
  down-regulation of hSGLT1 mediated AMG uptake: ~30%
hSGLT1 [5]; 15 mM
  down-regulation of hSGLT1 mediated AMG uptake: ~40%
mSGLT1 [4]; RS1−/− mice
  decrease of SGLT1 mediated uptake of 10 μM [14C]AMG: significantly inhibited
mSGLT1 [4]; wildtype mice
  decrease of SGLT1 mediated uptake of 10 μM [14C]AMG: significantly inhibited

B1: mRS1-Reg(S19E): mRS1-Reg, first/N-terminal QSP motive replaced by QEP (SEQ ID No. 10), coupled to hydrogel nanoparticles for gavage (protein)
chain: PSGQEPEVGSPTSLARSVSASVCAIKPGDPNSIESLAMEATKASAEFQTNSKKTDPPPLQVLPDLASSAEQSLAMPFH
modifications: coupled to hydrogel nanoparticles; mRS1-Reg(S19E)
mSGLT1 [6]; RS1−/− mice
  inhibition of phlorizin-inhibited uptake of 10 μM AMG: 26%
  inhibition of phlorizin-inhibited uptake of 1 mM AMG: 30%
mSGLT1 [6]; wild type mice
  decrease of uptake of 1 mM AMG (high intracellular glucose): 40%
  uptake of 10 μM AMG (low intracellular glucose): not altered

B2: hRS1-Reg(S45A): hRS1-Reg with serine 45 replaced by alanine to prevent phosphorylation (protein)
chain: SSGQSPDVGNPMSLARSVSASVCPIKPSDADRIEPKAVKALKASAEFQLNSEKKEHLSLQDLSDHASSADHAPTDQSPAMPMQ
modifications: left off: small tags and cut ends
notes: hRS1-Reg with serine 45 replaced by alanine to prevent phosphorylation
hSGLT1 [2]; no AMG injected
  affinity for down-regulation of hSGLT1 compared with hRS1-Reg wildtype: similar
hSGLT1 [2]
  effect of intracellular AMG on the affinity for down-regulation of hSGLT1: abolished

B3: hRS1-Reg(S20E): hRS1-Reg, the first/N-terminal QSP motive is replaced by QEP (SEQ ID No. 9) (protein)
chain: B2 chain with S5E, A30S
modifications: hRS1-Reg(S20E)
hSGLT1 [2]; high intracellular glucose (AMG ~250 μM)
  affinity for down-regulation of hSGLT1 higher than hRS1-Reg wildtype: 15 Mill
hSGLT1 [2]; intracellular AMG ~250 μM versus low
  increase of affinity (decrease of IC50) for down-regulation of hSGLT1 at high versus low intracellular AMG: 300 fold

B4: hRS1-Reg(S45E): hRS1-Reg with serine 45 replaced by glutamate to mimick phosphorylation (protein)
chain: B2 chain with A30E
modifications: left off: small tags and cut ends
notes: hRS1-Reg with serine 45 replaced by glutamate to mimick phosphorylation
hCNT1
  affinity for down-regulation of hCNT1 compared with hRS1-Reg wildtype: similar
  effect of mimicking phosphorylation in position 45 on affinity for down-regulation of hCNT1: decreases affinity
hSGLT1 [2]; no AMG injected
  affinity for down-regulation of hSGLT1 compared with hRS1-Reg wildtype: increases affinity
hSGLT1 [2]
  effect of intracellular AMG on the affinity for down-regulation of hSGLT1: abolished

B5: hRS1-Reg(S20A): hRS1-Reg mutant preventing phosphorylation at serine in position 20 (protein)
chain: B2 chain with S5A, A30S
modifications: left off: small tags and cut ends
hSGLT1 [2]; no AMG injected
  affinity for down-regulation of hSGLT1 compared with hRS1-Reg wildtype: does not alter the affinity
